Experimental findings from PubChem BioAssay (NCI) are described below.

Some test systems named below: A498 renal; CCRF-CEM leukemia; COLO 205 colon; HCT-116 colon; HS 578T breast; HT29 colon; MDA-MB-435; NCI-H460 lung; NCI-H522 lung; PC-3 prostate; RPMI-8226 leukemia; RXF 393 renal; SF-295 CNS; SK-MEL-5 melanoma; SNB-75 CNS; SR leukemia; U251 CNS; UO-31 renal.
What all share (test): NCI tumour cell line growth inhibition, 48 h

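48-hour exposure; five concentrations; linearly interpolated endpoints. TGI marks complete inhibition of growth.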

With `CCOC(=O)CCC(NC(=O)c1ccc(Oc2nc3c(N)cc(C(F)(F)F)cc3nc2-c2ccccc2)cc1)C(=O)OCC` (stereo not drawn), the TGI with A498 renal is > 94.3 µM; in the test on CCRF-CEM leukemia, > 100 µM; in the test on COLO 205 colon, > 100 µM; in the test on HCT-116 colon, > 25.2 µM; with HS 578T breast, > 72.8 µM; with HT29 colon, > 100 µM. Further, the TGI was > 100 µM in the test with MDA-MB-435; > 100 µM in the test on NCI-H460 lung; 45.4 µM with NCI-H522 lung; > 79.4 µM with PC-3 prostate; > 100 µM in the test with RPMI-8226 leukemia; 47.7 µM with RXF 393 renal. Besides, the TGI in the test with SF-295 CNS is 96.8 µM; in the test with SK-MEL-5 melanoma, > 100 µM; in the test on SNB-75 CNS, 25.4 µM; in the test on SR leukemia, > 100 µM; in the test with U251 CNS it was > 100 µM; in the test on UO-31 renal, > 100 µM.
As to `CC/C(Cl)=N\OC(=O)Nc1ccc(OC)c(C)c1`, the TGI was 61.2 µM with A498 renal; > 38.8 µM in the test with CCRF-CEM leukemia; 31.4 µM in the test with COLO 205 colon; 29.6 µM in the test with HCT-116 colon; 59.2 µM in the test with HS 578T breast; 41.2 µM in the test with HT29 colon. Moreover, the TGI in the test with MDA-MB-435 was > 100 µM; with NCI-H460 lung, > 100 µM; with NCI-H522 lung, 4.18 µM; with PC-3 prostate it was > 92.6 µM; in the test with RPMI-8226 leukemia, > 55.8 µM; with RXF 393 renal it was 31 µM. For the same molecule, the TGI in the test on SF-295 CNS is > 100 µM; with SK-MEL-5 melanoma, 39.1 µM; in the test with SNB-75 CNS, > 100 µM; in the test with SR leukemia it was 26.9 µM; in the test with U251 CNS, > 100 µM; with UO-31 renal, 35.5 µM.
Regarding `CCC/C(Cl)=N/OC(NC(=O)OCC)(C(F)(F)F)C(F)(F)F`, the TGI with A498 renal is > 100 µM; with CCRF-CEM leukemia, 87.9 µM; in the test with COLO 205 colon, 36.9 µM; with HCT-116 colon it was 34.6 µM; in the test with HS 578T breast, 77.3 µM; in the test with HT29 colon it was 47.2 µM. Also, the TGI was 34.8 µM with MDA-MB-435; > 100 µM in the test on NCI-H460 lung; > 100 µM with NCI-H522 lung; > 100 µM with PC-3 prostate; 56.1 µM with RPMI-8226 leukemia; 33.6 µM in the test on RXF 393 renal. For the same molecule, the TGI was > 100 µM in the test on SF-295 CNS; 71.4 µM in the test on SK-MEL-5 melanoma; > 100 µM with SNB-75 CNS; 57.6 µM in the test with SR leukemia; > 100 µM in the test on U251 CNS; 33.8 µM with UO-31 renal.
Regarding `O=[N+]([O-])c1ccc2sc(/C=N/c3ccccn3)cc2c1`, the TGI with A498 renal, in the test on CCRF-CEM leukemia, with COLO 205 colon, in the test with HCT-116 colon, in the test with HS 578T breast and in the test with HT29 colon was > 100 µM each time. The TGI was > 100 µM in the test with MDA-MB-435; > 100 µM in the test with NCI-H460 lung; > 100 µM in the test on NCI-H522 lung; > 100 µM with PC-3 prostate; 88.9 µM with RPMI-8226 leukemia; > 100 µM in the test with RXF 393 renal. Moreover, the TGI in the test on SF-295 CNS is > 100 µM; with SK-MEL-5 melanoma it was > 100 µM; with SNB-75 CNS it was > 100 µM; with SR leukemia it was 89.4 µM; in the test on U251 CNS, > 100 µM; in the test on UO-31 renal, > 100 µM.
In the case of `CC(NC1=CC(=O)c2cccnc2C1=O)C(O)c1ccccc1` (stereo not drawn), the TGI with A498 renal was determined as 8.82 µM; with CCRF-CEM leukemia, 25.5 µM; in the test with COLO 205 colon, 3.42 µM; in the test with HCT-116 colon it was 7.79 µM; with HS 578T breast, 8.14 µM; with HT29 colon it was 9.45 µM. The TGI with MDA-MB-435 stood at 3.13 µM; with NCI-H460 lung, 2.78 µM; with NCI-H522 lung, 3.57 µM; with PC-3 prostate it was 10.6 µM; in the test on RPMI-8226 leukemia, 6.7 µM; in the test with RXF 393 renal, 16.5 µM. The TGI in the test with SF-295 CNS was 2.63 µM; in the test with SK-MEL-5 melanoma, 2.44 µM; with SNB-75 CNS it was 3.05 µM; with SR leukemia, > 23.1 µM; with U251 CNS, 13.2 µM; in the test with UO-31 renal, 9.49 µM.
As to `CC(C)OC(=O)[C@H]1ON2O[C@H](O[C@@H]3CCCC[C@H]3c3ccccc3)C([Si](C)(C)c3ccccc3)[C@H]3OC(=O)[C@@H]1C32` (stereo partly drawn), the TGI in the test on A498 renal, in the test with CCRF-CEM leukemia, in the test with COLO 205 colon, with HCT-116 colon, with HS 578T breast and in the test with HT29 colon was > 100 µM in each case. The TGI in the test with MDA-MB-435, in the test with NCI-H460 lung, with NCI-H522 lung, in the test on PC-3 prostate, in the test on RPMI-8226 leukemia and in the test on RXF 393 renal was > 100 µM throughout. Further, the TGI was > 100 µM in the test on SF-295 CNS; > 100 µM with SK-MEL-5 melanoma; > 100 µM in the test with SNB-75 CNS; 54.2 µM with SR leukemia; > 100 µM in the test on U251 CNS; > 100 µM in the test on UO-31 renal.
